Patent publication US20090044291A1, “DROUGHT-RESISTANT PLANTS AND METHOD FOR PRODUCING THE PLANTS” (D-Helix, priority 2006, published 2009)
Entries after “also recorded” stand apart in the source; their conditions may differ.

Assays:
ABAR = biological target: T1, ABAR (Arabidopsis thaliana, UniProt Q9FNB0); assay: Preliminary ABA binding experiment with transgenic yeast extracts expressing ABAR cDNA
T1 construct: 6xHis; made in house; host or cells: transgenic yeast (Pichia methanolica), cell-free protein extracts

[1] = system: C-terminal portion of the broad bean ABAR or CHLH; assay: ABA binding to yeast-expressed C-terminal fragment of broad bean ABAR; parameters: species or system Vicia faba; conditions: data not shown
Description: So we designated it ABAR (for putative abscisic acid receptor). On the basis of the sequencing information, we isolated from broad bean leaves a complementary DNA fragment encoding the carboxy-terminal half of about 770 amino acids of the putative H subunit (CHLH) of the magnesium-protoporphyrin-IX chelatase (Mg-chelatase). CHLH has been reported to have multiple functions in plant cells. In addition to its enzymatic functions as a subunit of the Mg-chelatase in producing photosynthetic apparatus (Walker, C. J. et al., Biochem. J. 327:321-333 (1997)), CHLH has a key function in mediating plastid-to-nucleus signaling (Mochizuki, N. et al., Proc. Natl. Acad. Sci. USA 98:2053-2058 (2001); Surpin, M., et al., Plant Cell S327-S338 (2002); Strand, A., et al., Nature 421:79-83 (2003); Nott, A. et al., Annu. Rev. Plant Biol. 57:730-759 (2006)). […] The information from Vicia faba led us to analyse the functions of ABAR in ABA signalling in Arabidopsis thaliana.

Mg-chelatase = biological target: T2, Mg-chelatase (Arabidopsis thaliana, UniProt Q9FNB0); assay: Effects of ABA on Mg-chelatase activity in isolated chloroplasts; type: biochemical; conditions: chloroplasts pre-incubated 20 min with (±)-ABA
T2 construct: isolation of intact chloroplasts from 3-week-old gl1 plants; from tissue; host or cells: intact chloroplasts from 3-week-old Arabidopsis gl1 plants
T2 sequence (Q9FNB0 50-1381): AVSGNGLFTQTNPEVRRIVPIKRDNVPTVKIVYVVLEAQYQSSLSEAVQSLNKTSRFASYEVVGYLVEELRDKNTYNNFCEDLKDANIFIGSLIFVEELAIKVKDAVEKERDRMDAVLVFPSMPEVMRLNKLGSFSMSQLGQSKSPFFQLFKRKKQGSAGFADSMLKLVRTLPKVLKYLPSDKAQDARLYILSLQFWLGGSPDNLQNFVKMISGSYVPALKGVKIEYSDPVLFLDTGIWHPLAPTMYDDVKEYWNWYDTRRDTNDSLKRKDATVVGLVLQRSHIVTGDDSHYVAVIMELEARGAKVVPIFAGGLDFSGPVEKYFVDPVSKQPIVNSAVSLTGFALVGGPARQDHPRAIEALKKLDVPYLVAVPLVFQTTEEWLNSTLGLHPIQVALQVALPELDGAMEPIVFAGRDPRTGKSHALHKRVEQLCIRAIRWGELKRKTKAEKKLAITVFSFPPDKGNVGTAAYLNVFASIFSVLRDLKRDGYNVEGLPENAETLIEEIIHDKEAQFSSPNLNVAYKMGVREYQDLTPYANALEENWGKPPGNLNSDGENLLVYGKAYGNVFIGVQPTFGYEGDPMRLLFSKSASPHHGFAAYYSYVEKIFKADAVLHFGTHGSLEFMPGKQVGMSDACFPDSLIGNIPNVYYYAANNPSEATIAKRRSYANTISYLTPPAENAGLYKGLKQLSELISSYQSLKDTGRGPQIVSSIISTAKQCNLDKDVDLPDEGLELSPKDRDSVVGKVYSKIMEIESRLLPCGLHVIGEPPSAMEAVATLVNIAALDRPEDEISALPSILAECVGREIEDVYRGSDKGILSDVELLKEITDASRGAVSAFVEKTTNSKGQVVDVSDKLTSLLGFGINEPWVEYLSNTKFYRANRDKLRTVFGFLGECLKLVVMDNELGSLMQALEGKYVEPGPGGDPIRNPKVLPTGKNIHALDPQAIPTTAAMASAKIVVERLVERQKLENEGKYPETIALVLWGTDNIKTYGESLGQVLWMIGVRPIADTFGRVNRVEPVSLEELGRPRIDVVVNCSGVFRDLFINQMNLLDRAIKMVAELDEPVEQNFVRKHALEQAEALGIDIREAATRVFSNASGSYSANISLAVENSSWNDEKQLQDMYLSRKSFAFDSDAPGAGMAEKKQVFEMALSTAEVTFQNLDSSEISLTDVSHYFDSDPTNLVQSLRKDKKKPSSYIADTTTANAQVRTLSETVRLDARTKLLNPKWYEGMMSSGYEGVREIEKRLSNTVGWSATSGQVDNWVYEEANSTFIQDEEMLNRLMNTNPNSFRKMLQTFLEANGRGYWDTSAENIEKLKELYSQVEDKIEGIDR
Method: For the effects of ABA on Mg-chelatase activity in vitro, isolation of intact chloroplasts from 3-week-old gl1 plants and assays of both […] and Mg-chelatase activity were done essentially according to the method of Walker and Weinstein (Walker, C. J. et al., Plant Physiol. 95:1189-1196 (1991); Walker, C. J. et al., Proc. Natl. Acad. Sci. USA 88:5789-5793 (1991)). Briefly, the purified chloroplasts with high degree of intactness were pre-incubated for 20 min in the chloroplast isolation buffer supplemented with different concentrations of (±)-ABA. For assaying Mg-chelatase activity, reactions were started by addition of the ABA-pretreated plastids and terminated by addition of ice-cold acetone. All the manipulations were performed under dim light to prevent porphyrin-mediated photooxidative damage. After centrifugation, the green supernatant was reserved and diluted with 4 ml of 75% (v/v) acetone. The fluorescence of the product was read directly in this acetone extract.

## CC1=CC(=O)CC(C)(C)C1(O)/C=C/C(C)=C\C(=O)O (stereo not drawn) [ABA, abscisic acid]
ABAR
  Kd: 36 nM
[1]
  ABA binding: binds ABA specifically
Mg-chelatase
  Mg-chelatase activity: stimulated; also recorded: enhances
